Target: T1, SYK kinase (Homo sapiens, UniProt P43405)
T1 construct: purchased Invitrogen, Carlsbad
Assay: SYK assay (OMNIA Kinase Assay, Invitrogen)
Assay type: biochemical
Conditions: SYK Activities; 1 mM ATP, 10 μM Omnia Peptide Substrate Tyr 7, 30° C.
Procedure, shortened: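 SYK was added last to start phosphorylation of a chelation-enhanced SOX peptide substrate (10 μM) in the presence of 1 mM ATP and 0.2 mM DTT at 30° C. Kinetic readings at λex 360/λem 485 nm over 30 min gave velocities, fitted sigmoidally against compound concentration to give IC50.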

IC50 [nM] | SMILES
10 to 100 | CN(C)C(=O)Cn1cc(Nc2nc(-c3cccc(-c4cccnc4)c3)nc3cn[nH]c23)cn1 [Example 466, N,N-dimethyl-2-(4-((5-(3-(pyridin-3-yl)phenyl)-1H-pyrazolo[4,3-d]pyrimidin-7-yl)amino)-1H-pyrazol-1-yl)acetamide]
100 to 1000 | CC(C)c1nc(Nc2cnn(C3CCOCC3)c2)c2[nH]ncc2n1 [Example 182, 5-isopropyl-N-(1-(tetrahydro-2H-pyran-4-yl)-1H-pyrazol-4-yl)-1H-pyrazolo[4,3-d]pyrimidin-7-amine]
100 to 1000 | CC(C)Cn1cc(Nc2nc(-c3ncco3)nc3cn[nH]c23)cn1 [Example 252, N-(1-isobutyl-1H-pyrazol-4-yl)-5-(oxazol-2-yl)-1H-pyrazolo[4,3-d]pyrimidin-7-amine]
100 to 1000 | CC(C)(C)N1CCN(c2ccc(Nc3nc(-c4ccccc4F)nc4cn[nH]c34)cc2)CC1 [Example 23, N-(4-(4-(tert-butyl)piperazin-1-yl)phenyl)-5-(2-fluorophenyl)-1H-pyrazolo[4,3-d]pyrimidin-7-amine]
100 to 1000 | COCCn1ccc(Nc2nc(C3CCC3)nc3cn[nH]c23)cc1=O [Example 226, 4-((5-cyclobutyl-1H-pyrazolo[4,3-d]pyrimidin-7-yl)amino)-1-(2-methoxyethyl)pyridin-2(1H)-one]
10 to 100 | CC(C)Cn1cc(Nc2nc(-c3cccc(S(N)(=O)=O)c3)nc3cn[nH]c23)cn1 [Example 428, 3-(7-((1-isobutyl-1H-pyrazol-4-yl)amino)-1H-pyrazolo[4,3-d]pyrimidin-5-yl)benzenesulfonamide]
10 to 100 | O=c1cc(Nc2nc(C3CC3)nc3cn[nH]c23)ccn1C1CC1 [Example 296, 1-cyclopropyl-4-((5-cyclopropyl-1H-pyrazolo[4,3-d]pyrimidin-7-yl)amino)pyridin-2(1H)-one]
100 to 1000 | Fc1cccc(F)c1-c1nc(Nc2cnn(C3CCOCC3)c2)c2[nH]ncc2n1 [Example 439, 5-(2,6-difluorophenyl)-N-(1-(tetrahydro-2H-pyran-4-yl)-1H-pyrazol-4-yl)-1H-pyrazolo[4,3-d]pyrimidin-7-amine]
100 to 1000 | OCCn1cc(Nc2nc(-c3ncco3)nc3cn[nH]c23)cn1 [Example 253, 2-(4-((5-(oxazol-2-yl)-1H-pyrazolo[4,3-d]pyrimidin-7-yl)amino)-1H-pyrazol-1-yl)ethan-1-ol]
10 to 100 | COCCCn1cc(Nc2nc(-c3cccc(OC)c3)nc3cn[nH]c23)cn1 [Example 408, 5-(3-methoxyphenyl)-N-(1-(3-methoxypropyl)-1H-pyrazol-4-yl)-1H-pyrazolo[4,3-d]pyrimidin-7-amine]
100 to 1000 | O=C1OCCN1c1ccc(Nc2nc(-c3cccs3)nc3cn[nH]c23)cc1 [Example 38]
10 to 100 | c1csc(-c2nc(Nc3cnn(C4CCOCC4)c3)c3[nH]ncc3n2)c1 [Example 430, N-(1-(tetrahydro-2H-pyran-4-yl)-1H-pyrazol-4-yl)-5-(thiophen-2-yl)-1H-pyrazolo[4,3-d]pyrimidin-7-amine]
< 10 | COCCCn1cc(Nc2nc(-c3nc4ccccc4s3)nc3cn[nH]c23)cn1 [Example 412, 5-(benzo[d]thiazol-2-yl)-N-(1-(3-methoxypropyl)-1H-pyrazol-4-yl)-1H-pyrazolo[4,3-d]pyrimidin-7-amine]
10 to 100 | CN1CCN(C2CCN(c3ccc(Nc4nc(-c5ccccc5NS(C)(=O)=O)nc5cn[nH]c45)cc3)CC2)CC1 [Example 29, N-(2-(7-((4-(4-(4-methylpiperazin-1-yl)piperidin-1-yl)phenyl)amino)-1H-pyrazolo[4,3-d]pyrimidin-5-yl)phenyl)methanesulfonamide]
10 to 100 | CC(C)n1cc(Nc2nc(C(C)(C)C)nc3cn[nH]c23)cn1 [Example 269, 5-(tert-butyl)-N-(1-isopropyl-1H-pyrazol-4-yl)-1H-pyrazolo[4,3-d]pyrimidin-7-amine]
